Drawing on patent US10633382B2, “Imidazopyrazinones, pyrazolopyrimidinones and pyrazolopyridinones as PDE1 inhibitors” (H. Lundbeck A/S, priority 2016, dated 2020), this text covers IC50 and inhibition for 9 molecules.

Molecules are shown by their SMILES.

What all share (format): biochemical
In assay [1] the target is PDE1B (Homo sapiens, UniProt Q01064). As to the kind of experiment: PDE1 inhibition assay (PDE1B). To be noted: 15 nM tritium labelled cAMP, SPA. As for the experimental part: (§1) PDE1A, PDE1B and PDE1C assays were performed as follows: the assays were performed in 60 μL samples containing a fixed amount of the PDE1 enzyme (sufficient to convert 20-25% of the cyclic nucleotide substrate), a buffer (50 mM HEPES (4-(2-hydroxyethyl)-1-piperazineethanesulfonic acid) pH 7.6; 10 mM MgCl2; 0.02% Tween20), 0.1 mg/ml BSA (bovine serum albumin), 15 nM tritium labelled cAMP and varying amounts of inhibitors. Reactions were initiated by addition of the cyclic nucleotide substrate, and reactions were allowed to proceed for 1 hr at room temperature before being terminated through mixing with 20 μL (0.2 mg) yttrium silicate SPA beads (PerkinElmer). The beads were allowed to settle for 1 hour in the dark before the plates were counted in a Wallac 1450 Microbeta counter. The measured signals were converted to activity relative to an uninhibited control (100%) and IC50 values were calculated using XlFit (model 205, IDBS).
Sequence of PDE1B (Q01064 whole entry): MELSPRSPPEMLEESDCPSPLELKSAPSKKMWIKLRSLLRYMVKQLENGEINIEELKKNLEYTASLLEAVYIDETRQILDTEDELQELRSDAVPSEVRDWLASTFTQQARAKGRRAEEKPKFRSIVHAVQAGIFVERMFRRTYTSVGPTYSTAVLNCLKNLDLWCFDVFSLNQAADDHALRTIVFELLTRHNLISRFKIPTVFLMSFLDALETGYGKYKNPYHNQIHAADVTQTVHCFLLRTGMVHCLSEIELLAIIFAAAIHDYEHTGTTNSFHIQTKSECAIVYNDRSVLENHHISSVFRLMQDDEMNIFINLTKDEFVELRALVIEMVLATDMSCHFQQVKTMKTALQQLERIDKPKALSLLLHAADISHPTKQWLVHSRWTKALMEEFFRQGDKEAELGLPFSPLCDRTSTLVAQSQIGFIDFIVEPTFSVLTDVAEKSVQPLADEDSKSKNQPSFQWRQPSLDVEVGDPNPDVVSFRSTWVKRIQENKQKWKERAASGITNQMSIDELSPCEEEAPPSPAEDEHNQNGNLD

Assay [2] addresses PDE1A (Homo sapiens, UniProt P54750). Kind of assay: PDE1 inhibition assay (PDE1A). To be noted: 15 nM tritium labelled cAMP, SPA. Here is the method: as §1
Assay [3] addresses PDE9 (Homo sapiens, UniProt O76083). Kind of assay: PDE9 inhibition assay. The note with it: for inhibition at 10 µM: 10 μM of inhibitor. As for the experimental part: A PDE9 assay may for example, be performed as follows: The assay is performed in 60 μL samples containing a fixed amount of the relevant PDE enzyme (sufficient to convert 20-25% of the cyclic nucleotide substrate), a buffer (50 mM HEPES pH 7.6; 10 mM MgCl2; 0.02% Tween20), 0.1 mg/ml BSA, 225 pCi of ^3H-labelled cyclic nucleotide substrate, tritium labeled cAMP to a final concentration of 5 nM and varying amounts of inhibitors. Reactions are initiated by addition of the cyclic nucleotide substrate, and reactions are allowed to proceed for one hr at room temperature before being terminated through mixing with 15 μL 8 mg/mL yttrium silicate SPA beads (Amersham). The beads are allowed to settle for one hr in the dark before the plates are counted in a Wallac 1450 Microbeta counter. The measured signal can be converted to activity relative to an uninhibited control (100%) and IC50 values can be calculated using the Xlfit extension to EXCEL.
In the context of the present invention the assay was performed in 60 μL assay buffer (50 mM HEPES pH 7.6; 10 mM MgCl2; 0.02% Tween20) containing enough PDE9 to convert 20-25% of 10 nM ^3H-cAMP, and […] 10 μM of inhibitor. Following 1 hr incubation the reactions were terminated by addition of 15 μL 8 mg/mL yttrium silicate SPA beads (Amersham). The beads were allowed to settle for one hr in the dark before the plates were counted in a Wallac 1450 Microbeta counter.

Assay [4] addresses PDE1C (Homo sapiens, UniProt Q14123). As to the kind of experiment: PDE1 inhibition assay (PDE1C). The note with it: 15 nM tritium labelled cAMP, SPA. Here is the method:
as §1

Sequence of PDE1A (P54750 whole entry): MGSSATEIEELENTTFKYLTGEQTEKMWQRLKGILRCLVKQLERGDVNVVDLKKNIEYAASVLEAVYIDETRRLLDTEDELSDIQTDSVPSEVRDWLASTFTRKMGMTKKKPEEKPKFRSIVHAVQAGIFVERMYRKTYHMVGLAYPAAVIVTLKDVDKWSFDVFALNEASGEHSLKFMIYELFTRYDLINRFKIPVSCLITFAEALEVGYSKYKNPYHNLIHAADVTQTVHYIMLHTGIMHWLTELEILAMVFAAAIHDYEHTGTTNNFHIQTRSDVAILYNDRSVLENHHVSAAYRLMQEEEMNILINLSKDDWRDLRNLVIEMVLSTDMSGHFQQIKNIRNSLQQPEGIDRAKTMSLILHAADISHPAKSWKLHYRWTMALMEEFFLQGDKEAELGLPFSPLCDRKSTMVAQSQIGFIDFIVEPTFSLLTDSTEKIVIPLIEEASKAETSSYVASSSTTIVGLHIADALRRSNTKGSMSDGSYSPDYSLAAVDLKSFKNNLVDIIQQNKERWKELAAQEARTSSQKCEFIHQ
Sequence of PDE1C (Q14123 whole entry): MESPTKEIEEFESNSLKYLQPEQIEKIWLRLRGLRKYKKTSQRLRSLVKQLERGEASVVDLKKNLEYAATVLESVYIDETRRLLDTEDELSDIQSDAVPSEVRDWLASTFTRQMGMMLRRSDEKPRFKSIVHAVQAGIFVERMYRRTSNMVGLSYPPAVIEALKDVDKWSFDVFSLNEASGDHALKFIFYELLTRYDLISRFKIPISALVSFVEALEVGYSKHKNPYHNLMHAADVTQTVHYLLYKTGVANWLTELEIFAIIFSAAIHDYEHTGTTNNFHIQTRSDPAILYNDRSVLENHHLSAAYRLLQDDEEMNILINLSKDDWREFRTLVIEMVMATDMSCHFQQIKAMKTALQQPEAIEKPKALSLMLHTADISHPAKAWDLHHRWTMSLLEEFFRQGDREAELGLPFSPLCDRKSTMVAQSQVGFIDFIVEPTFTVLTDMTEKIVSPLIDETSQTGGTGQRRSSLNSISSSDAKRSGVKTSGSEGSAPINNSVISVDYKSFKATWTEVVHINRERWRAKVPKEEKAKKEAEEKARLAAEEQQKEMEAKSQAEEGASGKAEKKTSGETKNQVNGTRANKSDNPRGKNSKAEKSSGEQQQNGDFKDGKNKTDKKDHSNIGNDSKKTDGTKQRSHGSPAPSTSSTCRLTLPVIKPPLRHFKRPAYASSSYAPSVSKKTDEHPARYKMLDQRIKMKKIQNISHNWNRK
Sequence of PDE9 (O76083 whole entry): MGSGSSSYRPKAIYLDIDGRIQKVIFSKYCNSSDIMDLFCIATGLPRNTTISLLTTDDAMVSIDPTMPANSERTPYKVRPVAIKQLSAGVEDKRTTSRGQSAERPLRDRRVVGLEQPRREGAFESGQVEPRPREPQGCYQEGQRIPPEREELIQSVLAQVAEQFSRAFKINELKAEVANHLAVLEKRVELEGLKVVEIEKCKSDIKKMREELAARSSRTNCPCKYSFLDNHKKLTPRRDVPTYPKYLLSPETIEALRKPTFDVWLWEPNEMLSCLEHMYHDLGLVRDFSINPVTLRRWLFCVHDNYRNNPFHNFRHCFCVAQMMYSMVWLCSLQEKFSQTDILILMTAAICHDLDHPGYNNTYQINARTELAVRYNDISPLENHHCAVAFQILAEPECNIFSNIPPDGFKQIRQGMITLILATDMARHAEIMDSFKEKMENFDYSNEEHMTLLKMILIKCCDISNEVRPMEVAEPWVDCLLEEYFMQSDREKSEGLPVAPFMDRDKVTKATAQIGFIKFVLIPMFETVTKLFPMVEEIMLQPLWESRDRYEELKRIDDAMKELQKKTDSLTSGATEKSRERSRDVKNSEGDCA

Consider `COc1ccc(Cn2c(CN3CCN(c4ccccc4)CC3)cn3c(C4CCOCC4)ncc3c2=O)cc1` [Example 8, 7-[(4-methoxyphenyl)methyl]-6-[(4-phenylpiperazin-1-yl)methyl]-3-tetrahydropyran-4-yl-imidazo[1,5-a]pyrazin-8-one], for which the IC50 (in general, the midpoint of a concentration-inhibition curve) stood at 0.0098 µM in assay [1], 0.059 µM in assay [2] and 0.14 µM in assay [4]. Also, in assay [3], the inhibition (as a rule, the change of the read-out against control, counted positive when it falls) at 10 µM amounted to 11%.

Turning to `CC(C)c1ncc2c(=O)n(C)c(Cc3ccc(-c4cccc(F)n4)cc3)cn12` [Example 21, 6-[[4-(6-fluoro-2-pyridyl)phenyl]methyl]-3-isopropyl-7-methyl-imidazo[1,5-a]pyrazin-8-one], the values for the IC50 in assay [1], in assay [2] and in assay [4] were 0.013 µM, 0.036 µM and 0.093 µM, respectively. Moreover, the inhibition at 10 µM in assay [3] was 13%.

With `Cn1c(Cc2ccc(-c3ccccn3)cc2)cc2c(cnn2C2CCOCC2)c1=O` [Example 6, 5-methyl-6-[[4-(2-pyridyl)phenyl]methyl]-1-tetrahydropyran-4-yl-pyrazolo[4,3-c]pyridin-4-one], the 50% inhibitory concentration (IC50) is 0.025 µM in assay [1], 0.16 µM in assay [2] and 0.24 µM in assay [4]. For the same molecule, the inhibition at 10 µM in assay [3] worked out at 4%.

On to `Cn1c(Cc2ccc(-c3cccc(F)n3)cc2)cn2c(C3CCOC3)ncc2c1=O` (single isomer, unassigned; isomer 1) [Example 27, 6-(4-(6-fluoropyridin-2-yl)benzyl)-7-methyl-3-(tetrahydrofuran-3-yl)imidazo[1,5-a]pyrazin-8(7H)-one, Isomer 1], for which the results for the IC50 in assay [1], in assay [2] and in assay [4] were 0.016 µM, 0.057 µM and 0.096 µM, respectively. In assay [3], the inhibition at 10 µM worked out at 4%.

Regarding `Cn1c(Cc2ccc(-c3ccncn3)cc2)cn2c(C3CCOCC3)ncc2c1=O` [Example 26, 7-methyl-6-(4-(pyrimidin-4-yl)benzyl)-3-(tetrahydro-2H-pyran-4-yl)imidazo[1,5-a]pyrazin-8(7H)-one], the 50% inhibitory concentration (IC50) was 0.016 µM in assay [1], 0.068 µM in assay [2] and 0.149 µM in assay [4]. Moreover, the inhibition at 10 µM in assay [3] is 14%.

As to `O=c1[nH]c(Cc2ccc(-c3ccccn3)cc2)cn2c(C3CCOCC3)ncc12` [Example 10, 6-[[4-(2-pyridyl)phenyl]methyl]-3-tetrahydropyran-4-yl-7H-imidazo[1,5-a]pyrazin-8-one], the IC50 in assay [1] was 0.006 µM; in assay [2], 0.017 µM; in assay [3] (printed in the PDE9 inhibition column), 0.18 µM; in assay [4] it was 0.022 µM.

In the case of `Cn1c(Cc2ccc(-c3cccc(F)n3)cc2)cn2c(CC(F)(F)F)ncc2c1=O` [Example 25, 6-(4-(6-fluoropyridin-2-yl)benzyl)-7-methyl-3-(2,2,2-trifluoroethyl)imidazo[1,5-a]pyrazin-8(7H)-one], the IC50 in assay [1] is 0.09 µM; in assay [2] it was 0.218 µM; in assay [4], 0.4 µM. In addition, the inhibition at 10 µM in assay [3] was 9%.

Consider `Cc1cccc(-c2ccc(Cc3nc4c(cnn4C4CCOCC4)c(=O)n3C)cc2)n1` [Example 3, 5-methyl-6-[[4-(6-methyl-2-pyridyl)phenyl]methyl]-1-tetrahydropyran-4-yl-pyrazolo[3,4-d]pyrimidin-4-one], for which the values for the concentration for half-maximal inhibition (IC50) in assay [1], in assay [2] and in assay [4] were 0.093 µM, 0.35 µM and 0.66 µM, respectively. The inhibition at 10 µM in assay [3] came out at 25%.

Take `Cn1cnc(-c2ccc(Cc3cn4c(C5CCOCC5)ncc4c(=O)n3C)cc2)c1` [Example 20, 7-methyl-6-(4-(1-methyl-1H-imidazol-4-yl)benzyl)-3-(tetrahydro-2H-pyran-4-yl)imidazo[1,5-a]pyrazin-8(7H)-one]: the values for the IC50 in assay [1], in assay [2] and in assay [4] were 0.017 µM, 0.075 µM and 0.157 µM, respectively. Moreover, the inhibition at 10 µM in assay [3] was -6%.
